This assay has as its system GST-Bcl-2. The assay can be described thus: TR-FRET binding assay, Bcl-2. The conditions noted are these: TR-FRET Ki values. The method, boiled down: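 Ki values come from Wang's competitive-binding equation applied to TR-FRET signal (excitation 340/35 nm; emission 520/525 nm F-Bak peptide, 495/510 nm Tb antibody). Protein, probe and antibody incubated with compound 3 h at room temperature; dilution series began at 50 μM as 2× stock in 10% DMSO.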
For the compound `O=C(NS(=O)(=O)c1ccc(NCCCN2CCOCC2)c([N+](=O)[O-])c1)c1ccc(N2CCN(Cc3ccccc3-c3ccc(Cl)cc3)CC2)cc1Oc1ccc2ccccc2c1` [Example 36, 4-{4-[(4′-chloro-1,1′-biphenyl-2-yl)methyl]piperazin-1-yl}-N-({4-[(3-morpholin-4-ylpropyl)amino]-3-nitrophenyl}sulfonyl)-2-(2-naphthyloxy)benzamide], the “Binding selectivity ratio (Bcl-XL Ki/Bcl-2 Ki)” value (“Binding selectivity ratio” for short) is on record as 11.3.

Regarding `O=C(NS(=O)(=O)c1ccc(NCC2CCOCC2)c(S(=O)(=O)C(F)(F)F)c1)c1ccc(N2CCN(Cc3ccccc3-c3ccc(Cl)cc3)CC2)cc1Oc1ccc2ccccc2c1` [Example 37, 4-{4-[(4′-chloro-1,1′-biphenyl-2-yl)methyl]piperazin-1-yl}-2-(2-naphthyloxy)-N-({4-[(tetrahydro-2H-pyran-4-ylmethyl)amino]-3-[(trifluoromethyl)sulfonyl]phenyl}sulfonyl)benzamide], the “Binding selectivity ratio” value is given as 95.7.

As to `CN(C)CCCNc1ccc(S(=O)(=O)NC(=O)c2ccc(N3CCN(Cc4ccccc4-c4ccc(Cl)cc4)CC3)cc2Oc2cccc3cnccc23)cc1[N+](=O)[O-]` [Example 42, 4-{4-[(4′-chloro-1,1′-biphenyl-2-yl)methyl]piperazin-1-yl}-N-[(4-{[3-(dimethylamino)propyl]amino}-3-nitrophenyl)sulfonyl]-2-(isoquinolin-5-yloxy)benzamide], the “Binding selectivity ratio” value came to 80.

Take `CN(C)CCCNc1ccc(S(=O)(=O)NC(=O)c2ccc(N3CCN(Cc4ccccc4-c4ccc(Cl)cc4)CC3)cc2Oc2ccc3cc[nH]c3c2)cc1[N+](=O)[O-]` [Example 47, 4-{4-[(4′-chloro-1,1′-biphenyl-2-yl)methyl]piperazin-1-yl}-N-[(4-{[3-(dimethylamino)propyl]amino}-3-nitrophenyl)sulfonyl]-2-(1H-indol-6-yloxy)benzamide]: the “Binding selectivity ratio” value was 15.7.

Turning to `CC1(C)CCC(c2ccc(Cl)cc2)=C(CN2CCN(c3ccc(C(=O)NS(=O)(=O)c4ccc(NCCCN5CCOCC5)c([N+](=O)[O-])c4)c(Oc4ccc5[nH]ccc5c4)c3)CC2)C1` [Example 50, 4-(4-{[2-(4-chlorophenyl)-5,5-dimethylcyclohex-1-en-1-yl]methyl}piperazin-1-yl)-2-(1H-indol-5-yloxy)-N-({4-[(3-morpholin-4-ylpropyl)amino]-3-nitrophenyl}sulfonyl)benzamide], the “Binding selectivity ratio” value came out at 191.2.

For the compound `CN(C)CCCNc1ccc(S(=O)(=O)NC(=O)c2ccc(N3CCN(CC4=C(c5ccc(Cl)cc5)CCC(C)(C)C4)CC3)cc2Oc2ccc3[nH]ccc3c2)cc1[N+](=O)[O-]` [Example 51, 4-(4-{[2-(4-chlorophenyl)-5,5-dimethylcyclohex-1-en-1-yl]methyl}piperazin-1-yl)-N-[(4-{[3-(dimethylamino)propyl]amino}-3-nitrophenyl)sulfonyl]-2-(1H-indol-5-yloxy)benzamide], the “Binding selectivity ratio” value is 62.1.

On to `O=C(NS(=O)(=O)c1ccc(NCCCN2CCOCC2)c([N+](=O)[O-])c1)c1ccc(N2CCN(Cc3ccccc3-c3ccc(Cl)cc3)CC2)cc1Oc1cccc2[nH]ccc12` [Example 58, 4-{4-[(4′-chloro-1,1′-biphenyl-2-yl)methyl]piperazin-1-yl}-2-(1H-indol-4-yloxy)-N-({4-[(3-morpholin-4-ylpropyl)amino]-3-nitrophenyl}sulfonyl)benzamide], for which the “Binding selectivity ratio” value is reported as 265.5.

As for `O=C(NS(=O)(=O)c1ccc(NCCCN2CCOCC2)c([N+](=O)[O-])c1)c1ccc(N2CCN(Cc3ccccc3-c3ccc(Cl)cc3)CC2)cc1Oc1ccc2[nH]ccc2c1` [Example 59, 4-{4-[(4′-chloro-1,1′-biphenyl-2-yl)methyl]piperazin-1-yl}-2-(1H-indol-5-yloxy)-N-({4-[(3-morpholin-4-ylpropyl)amino]-3-nitrophenyl}sulfonyl)benzamide], the “Binding selectivity ratio” value is reported as 1867.6.

For the compound `COc1ccc(S(=O)(=O)NC(=O)c2ccc(N3CCN(Cc4ccccc4-c4ccc(Cl)cc4)CC3)cc2Oc2ccccc2)cc1` [Example 60, 4-{4-[(4′-chloro-1,1′-biphenyl-2-yl)methyl]piperazin-1-yl}-N-[(4-methoxyphenyl)sulfonyl]-2-phenoxybenzamide], the “Binding selectivity ratio” value is on record as over 34.9.

Consider `Cc1ccc(S(=O)(=O)NC(=O)c2ccc(N3CCN(Cc4ccccc4-c4ccc(Cl)cc4)CC3)cc2Oc2ccccc2)cc1` [Example 61, 4-{4-[(4′-chloro-1,1′-biphenyl-2-yl)methyl]piperazin-1-yl}-N-[(4-methylphenyl)sulfonyl]-2-phenoxybenzamide], for which the “Binding selectivity ratio” value was over 12.6.

For the compound `O=C(NS(=O)(=O)c1ccc(NCC2CCOCC2)c(S(=O)(=O)C(F)(F)F)c1)c1ccc(N2CCN(Cc3ccccc3-c3ccc(Cl)cc3)CC2)cc1Oc1ccc2[nH]ccc2c1` [Example 62, 4-{4-[(4′-chloro-1,1′-biphenyl-2-yl)methyl]piperazin-1-yl}-2-(1H-indol-5-yloxy)-N-({4-[(tetrahydro-2H-pyran-4-ylmethyl)amino]-3-[(trifluoromethyl)sulfonyl]phenyl}sulfonyl)benzamide], the “Binding selectivity ratio” value worked out at 162.4.

Consider `CN(C)CCCNc1ccc(S(=O)(=O)NC(=O)c2ccc(N3CCN(Cc4ccccc4-c4ccc(Cl)cc4)CC3)cc2Oc2ccc3[nH]ccc3c2)cc1S(=O)(=O)C(F)(F)F` [Example 64, 4-{4-[(4′-chloro-1,1′-biphenyl-2-yl)methyl]piperazin-1-yl}-N-({4-{[3-(dimethylamino)propyl]amino}-3-[(trifluoromethyl)sulfonyl]phenyl}sulfonyl)-2-(1H-indol-5-yloxy)benzamide], for which the “Binding selectivity ratio” value turned out to be 77.1.

Turning to `O=C(NS(=O)(=O)c1ccc(NCCCN2CCOCC2)c(S(=O)(=O)C(F)(F)F)c1)c1ccc(N2CCN(Cc3ccccc3-c3ccc(Cl)cc3)CC2)cc1Oc1cccc2[nH]ccc12` [Example 65, 4-{4-[(4′-chloro-1,1′-biphenyl-2-yl)methyl]piperazin-1-yl}-2-(1H-indol-4-yloxy)-N-({4-[(3-morpholin-4-ylpropyl)amino]-3-[(trifluoromethyl)sulfonyl]phenyl}sulfonyl)benzamide], the “Binding selectivity ratio” value came to 4.8.

Consider `CN(C)CCCNc1ccc(S(=O)(=O)NC(=O)c2ccc(N3CCN(CC4=C(c5ccc(Cl)cc5)CC(C)(C)CC4)CC3)cc2Oc2ccc3[nH]ccc3c2)cc1S(=O)(=O)C(F)(F)Cl` [Example 67, N-[(3-{[chloro(difluoro)methyl]sulfonyl}-4-{[3-(dimethylamino)propyl]amino}phenyl)sulfonyl]-4-(4-{[2-(4-chlorophenyl)-4,4-dimethylcyclohex-1-en-1-yl]methyl}piperazin-1-yl)-2-(1H-indol-5-yloxy)benzamide], for which the “Binding selectivity ratio” value was over 2.3.

`O=C(NS(=O)(=O)c1ccc(NCCCN2CCOCC2)cc1)c1ccc(N2CCN(Cc3ccccc3-c3ccc(Cl)cc3)CC2)cc1Oc1ccccc1` [Example 78, 4-{4-[(4′-chloro-1,1′-biphenyl-2-yl)methyl]piperazin-1-yl}-N-({4-[(3-morpholin-4-ylpropyl)amino]phenyl}sulfonyl)-2-phenoxybenzamide]: the “Binding selectivity ratio” value is given as over 5.9.

With `O=C(NS(=O)(=O)c1ccc(NCC2CCOCC2)c([N+](=O)[O-])c1)c1ccc(N2CCN(Cc3ccccc3-c3ccc(Cl)cc3)CC2)cc1Oc1cccnc1` [Example 79, 4-{4-[(4′-chloro-1,1′-biphenyl-2-yl)methyl]piperazin-1-yl}-N-({3-nitro-4-[(tetrahydro-2H-pyran-4-ylmethyl)amino]phenyl}sulfonyl)-2-(pyridin-3-yloxy)benzamide], the “Binding selectivity ratio” value was 47.4.

For the compound `CN1CCN(CCNc2ccc(S(=O)(=O)NC(=O)c3ccc(N4CCN(Cc5ccccc5-c5ccc(Cl)cc5)CC4)cc3Oc3ccccc3)cc2[N+](=O)[O-])CC1` [Example 85, 4-{4-[(4′-chloro-1,1′-biphenyl-2-yl)methyl]piperazin-1-yl}-N-[(4-{[2-(4-methylpiperazin-1-yl)ethyl]amino}-3-nitrophenyl)sulfonyl]-2-phenoxybenzamide], the “Binding selectivity ratio” value is recorded as 48.8.

On to `CN(C)CCCN(C)c1ccc(S(=O)(=O)NC(=O)c2ccc(N3CCN(Cc4ccccc4-c4ccc(Cl)cc4)CC3)cc2Oc2ccccc2)cc1[N+](=O)[O-]` [Example 87, 4-{4-[(4′-chloro-1,1′-biphenyl-2-yl)methyl]piperazin-1-yl}-N-({4-[[3-(dimethylamino)propyl](methyl)amino]-3-nitrophenyl}sulfonyl)-2-phenoxybenzamide], for which the “Binding selectivity ratio” value is reported as 533.8.

For the compound `CN(C)CCCNc1ccc(S(=O)(=O)NC(=O)c2ccc(N3CCN(Cc4ccccc4-c4ccc(Cl)cc4)CC3)cc2Oc2ccccc2)cc1C#N` [Example 90, 4-{4-[(4′-chloro-1,1′-biphenyl-2-yl)methyl]piperazin-1-yl}-N-[(3-cyano-4-{[3-(dimethylamino)propyl]amino}phenyl)sulfonyl]-2-phenoxybenzamide], the “Binding selectivity ratio” value was found to be 133.

As for `O=C(NS(=O)(=O)c1ccc(NCCCN2CCCC2)c([N+](=O)[O-])c1)c1ccc(N2CCN(Cc3ccccc3-c3ccc(Cl)cc3)CC2)cc1Oc1ccccc1` [Example 91, 4-{4-[(4′-chloro-1,1′-biphenyl-2-yl)methyl]piperazin-1-yl}-N-({3-nitro-4-[(3-pyrrolidin-1-ylpropyl)amino]phenyl}sulfonyl)-2-phenoxybenzamide], the “Binding selectivity ratio” value worked out at 52.8.

As to `CN(C)CCCNc1ccc(S(=O)(=O)NC(=O)c2ccc(N3CCN(Cc4ccccc4-c4ccc(Cl)cc4)CC3)cc2Oc2ccccc2)cc1C(F)(F)F` [Example 92, 4-{4-[(4′-chloro-1,1′-biphenyl-2-yl)methyl]piperazin-1-yl}-N-{[4-{[3-(dimethylamino)propyl]amino}-3-(trifluoromethyl)phenyl]sulfonyl}-2-phenoxybenzamide], the “Binding selectivity ratio” value is 79.7.

Source of the values: patent publication US9125913B2, “Bcl-2-selective apoptosis-inducing agents for the treatment of cancer and immune diseases” (AbbVie Inc., priority 2008, dated 2015).
